Read-outs that look alike come from different tables or passages of the source.
Tests used:
C. tropicalis = assay: Toxicity tests of additional substrates (absorbance at 600 nm); assay type: cell-based; details: for Absorbance at 600 nm: 24 hours, added without solvent
Method: Additional substrates were to be tested for bioconversion following a slightly different protocol than the one noted above in Example 3. Those substrates also had to be tested for toxicity similar to the test described in Example 2, to determine the highest concentration at which a substrate could be added to a culture broth without being toxic, inhibiting growth, or interfering with the bioconversion process. C. tropicalis was grown in the presence of the substrate at three different concentrations and growth was monitored spectrophotometrically. In contrast to Example 2, all test substrates were added directly to the culture medium without dissolving in solvent. The tests were completed as follows:
On the first day, H5343 was grown in YPD medium (25.0 ml seed culture) overnight on a rotary shaker at 30° C. and 250 rpm. The next day 1.0 ml of the seed culture was used to inoculate a new flask of 50 ml YPD. This culture was grown overnight on a rotary shaker at 30° C. and 250 rpm. […]
Two control flasks were each inoculated with H5343 in 25 ml YPD. All flasks were incubated on a rotary shaker at 30° C. and 250 rpm.
After 24 hours incubation, the absorbance at 600 nm of the test and control flask cultures was determined, using uninoculated YPD broth as blank. Cultures were diluted so that the OD^600 nm measured between 0.15 and 0.3.
For strongly inhibitory substrates, a concentration of 0.1-0.2% was chosen for the bioconversion tests.

[1] = test system: C. tropicalis strain H5343; assay: Toxicity tests of substrates (growth by absorbance at 600 nm, streak plates); assay type: cell-based; details: 48 h, 30° C., dilution in YPD 1:100
Method: The toxicity test used here was similar to that used for the solvents described in Example 1. The goal was to determine the highest concentration at which a substrate could be added to a culture broth without being toxic, inhibiting growth, or interfering with the bioconversion process. C. tropicalis strain H5343 was grown in the presence of the substrate at different concentrations and growth was monitored spectrophotometrically. In order to determine if the substrate was lethal or was simply inhibiting growth, the cultures were examined under the microscope and streak plates of YPD and LB agar were prepared. Contamination of the culture with an unwanted organism could also be detected using this approach.
6 ml was transferred to the first tube and 3 ml to the rest. 1% substrate was added to the first tube and then serially diluted to give concentrations from 1% to 0.015%. Since the last tube was initially empty, the concentration in the last two tubes was the same. […] As a growth-control one culture without substrate was inoculated.
To determine if contamination had occurred, each culture was examined under the microscope and streak plates of both YPD and LB were made from the 1% and the inoculated 0.015% tube.

[2] = test system: C. tropicalis strain H5343; details: for nontoxic concentration of solvent: growth of strain H5343; for ABS Lambda = 600.0 nm: 24 h, 30° C., dilution in YPD 1:100

SMILES	Absorbance at 600 nm (C. tropicalis; substrate concentration 0.1%)	Absorbance at 600 nm (C. tropicalis; substrate concentration 0.5%)	Absorbance at 600 nm (C. tropicalis; substrate concentration 1.0%)	also measured
CCCC1CCCCC1 [Propylcyclohexane]	44.13	34.12	1.201	
CCCCC1CCCCC1 [Butylcyclohexane]	22.03	21.13	20.33	
CCCCCCCCC(CO)CCCCCC (centres unmarked) [2-Hexyl-1-decanol]	24.43	19.73	11.93	ABS 600.0 nm ([1]; substrate concentration 0.01563%): 0.120; ABS 600.0 nm ([1]; substrate concentration 0.0313%): 0.145; ABS 600.0 nm ([1]; substrate concentration 0.063%): 0.110; ABS 600.0 nm ([1]; substrate concentration 0.13%): 0.273; ABS 600.0 nm ([1]; substrate concentration 0.25%): 0.145; ABS 600.0 nm ([1]; substrate concentration 0.5%): 0.122; ABS 600.0 nm ([1]; substrate concentration 1%): 0.117
CCCCCCc1ccsc1 [3-Hexylthiophene]	0.933	1.033	1.223	
C=CCCCCCCCCCCCCCC [1-Hexadecene]	38.99	35.33	37.93	
CC(C)=O [Acetone]				nontoxic concentration of solvent [2]: ≤ 4%; ABS Lambda = 600.0 nm ([2]; solvent concentration 0.25%): 0.123; ABS Lambda = 600.0 nm ([2]; solvent concentration 0.5%): 0.183; ABS Lambda = 600.0 nm ([2]; solvent concentration 1%): 0.111; ABS Lambda = 600.0 nm ([2]; solvent concentration 2%): 0.149; ABS Lambda = 600.0 nm ([2]; solvent concentration 4%): 0.087
CCCCCCOCCCCCC [Hexyl Ether, Dihexyl Ether]	12.85	13.21	3.33	
CCCCCOCCCCC [Pentyl Ether, Dipentyl Ether]	2.033	1.863	1.813	
CCCCCCCCCCCCCCC(O)CO (centres unmarked) [1,2-Hexadecanediol]	3.103	3.033	2.013	
CCO [Ethanol]				nontoxic concentration of solvent [2]: 4%; ABS Lambda = 600.0 nm ([2]; solvent concentration 0.25%): 0.122; ABS Lambda = 600.0 nm ([2]; solvent concentration 0.5%): 0.104; ABS Lambda = 600.0 nm ([2]; solvent concentration 1%): 0.137; ABS Lambda = 600.0 nm ([2]; solvent concentration 2%): 0.119; ABS Lambda = 600.0 nm ([2]; solvent concentration 4%): 0.090
CCCCCC [Hexane]				nontoxic concentration of solvent [2]: 2%; ABS Lambda = 600.0 nm ([2]; solvent concentration 0.25%): 0.119; ABS Lambda = 600.0 nm ([2]; solvent concentration 0.5%): 0.148; ABS Lambda = 600.0 nm ([2]; solvent concentration 1%): 0.119; ABS Lambda = 600.0 nm ([2]; solvent concentration 2%): 0.126; ABS Lambda = 600.0 nm ([2]; solvent concentration 4%): 0.005
CCCCC(C(=O)O)C(=O)O [Butylmalonic Acid]	27.43	27.13	8.53	
CCC1CCCCC1 [Ethylcyclohexane]				Absorbance at 600 nm (C. tropicalis; substrate concentration 0.06%): 9.45; Absorbance at 600 nm (C. tropicalis; substrate concentration 0.3%): 2.03; Absorbance at 600 nm (C. tropicalis; substrate concentration 0.6%): 16.5
CC1CCCCC1 [Methylcyclohexane]				Absorbance at 600 nm (C. tropicalis; substrate concentration 0.06%): 13.7; Absorbance at 600 nm (C. tropicalis; substrate concentration 0.3%): 15.6; Absorbance at 600 nm (C. tropicalis; substrate concentration 0.6%): 0.16
CCCCCCC(C)O (centres unmarked) [2-Octanol]	0.250	0.235	0.285	Toxic at (concentration) (C. tropicalis; Phase II screening summary): Toxic at 0.1%
CCCCCCCCC(CCCCCC)C(=O)O (centres unmarked) [2-Hexydecanoic acid, 2-hexyldecanoic acid]	27.73	35.33	41.53	
CCCC[S+]([O-])CCCC [Butylsulfoxide, dibutylsulfoxide]	15.63	11.37	5.81	
